Assay results: publication PMC2898662, “Midkine inhibitors: application of a simple assay procedure to screening of inhibitory compounds” (International Archives of Medicine, 2010)
Ends that are not written are not given here. Peptide text beside a SMILES is read from it.

Assays:
midkine [1] = target: T1, midkine (Homo sapiens, UniProt P21741); assay: Binding activity to midkine by surface plasmon assay (BIACORE 3000); conditions: BIACORE 3000, midkine immobilised on CM5 chip; peptides 5 μg/ml in 10 mM HEPES-NaOH pH 7.4, 0.15 M NaCl, 0.0005% Tween 20; 25°C; read-out: Binding constant to midkine
T1 construct: made in house; host or cells: yeast
T1 sequence (P21741 23-143 limits assumed): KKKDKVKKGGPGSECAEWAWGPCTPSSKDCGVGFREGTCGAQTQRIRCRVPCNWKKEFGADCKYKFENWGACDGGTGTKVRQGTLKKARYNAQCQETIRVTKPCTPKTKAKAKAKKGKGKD
Description: Binding activity to midkine was evaluated in the BIACORE 3000 System (GE Healthcare, UK Ltd). A CM5 sensor chip coated with carboxymethyldextran was activated by injecting a solution (1:1) of 200 mM N-ethyl-N'-(3-dimethylaminopropyl) carbodiimide hydrochloride and 100 mM N-hydroxysuccinimide at a flow rate of 10 μl/min. A 70 μl aliquot of midkine solution (50 μg/ml in 10 mM acetate buffer, pH 5.0) was injected for immobilization. The remaining activated N-hydroxysuccinimide ester groups were blocked by injecting 1 M ethanolamine hydrochloride/NaOH, pH 8.5, and washed with 10 μl of 1 M NaCl. Peptides (5 μg/ml) in the running buffer (10 mM HEPES-NaOH, pH 7.4, containing 0.15 M NaCl and 0.0005% Tween 20) were injected into the flow cell, and the change in resonance units was recorded. Binding assays were performed at 25°C with a constant flow rate of […] in both association and dissociation phases.

midkine [2] = target: T1, midkine; assay: Midkine activity: midkine-dependent migration of UMR106 cells (Chemotaxicell); assay type: cell-based; conditions: filter coated with 20 μg/ml midkine, 4 h, OD 590 nm
Description: Midkine activity was determined by promotion of migration of UMR106 (ATTC No. 1661) cells. Chemotaxicell (pore size 8 micron, Kurabo Industries Ltd., Japan) was coated with 20 μg/ml of midkine at the lower surface of the filter for 1 h, and washed with Dulbecco's phosphate-buffered saline (PBS) twice. UMR106 cells (2 × 10^5 cells in 0.2 ml of Dulbecco's modified Eagle's medium with 0.3% bovine serum albumin) were added to the upper chamber. The lower chamber contained 0.5 ml of the same medium. Cells were cultured for 4 h. The inner Chemotaxicell was cleaned with PBS, and cells were fixed with 100% methanol at room temperature for 20 min. The inner cell was cleaned with cotton bar, and the migrated cells were stained with 1% crystal violet at room temperature for 30 min., and were washed with H2O. The cells were extracted with 0.2 ml of 1% SDS with 1% Triton X-100 for 1 h upon agitation. Then extract of 0.15 ml was transferred to a 96 well plate and OD 590 nm was determined. Upon inhibition assay using low molecular weight compounds, they were dissolved in ethanol and were added to the lower chamber so that the final ethanol concentration was 2%. The control contained also 2% ethanol in this occasion. Inhibition assay using peptides was performed by adding them dissolved in H2O. Assay was done in duplicate.

UMR106 cells = assay: Toxicity to UMR106 target cells in culture
Description: These 10 compounds were surveyed for the activity to inhibit midkine activity.

[3] = peptide 1 mg/ml in lower chamber, dissolved in H2O, control without material = 100, duplicate
[4] = peptide added to culture of UMR106 cells at 1 mg/ml

| Molecule | Kd (midkine [1]) | Migration activity (%) (midkine [2]; [3]) | other results |
| --- | --- | --- | --- |
| IENPRGSKDIKKNKN [IE15] | 300 nM | 113 ± 10.1% | – |
| CC1CCCC(C)N1c1nc(-c2cccs2)cc(C(F)(F)F)n1 (stereo not shown) [Compound I, 2-(2,6-dimethylpiperidin-1-yl)-4-thiophen-2-yl-6-(trifluoromethy)pyrimidine] | – | – | Migration activity (%) (midkine [2]; compound 0.146 mg/ml in lower chamber, 2% ethanol, control = 100, duplicate): 43.8 ± 10.2%; Toxicity to the target cells (UMR106 cells; at the concentration used for the migration assay (Compound I 0.146 mg/ml, Compound II 0.10 mg/ml)): no toxicity |
| QETIRVTKPC [QE10, midkine-derived peptide … from β-sheet of C-terminal half] | – | 99.5 ± 10.6% | – |
| AMETNLV [AM7] | 950 nM | 99.5 ± 6.9% | – |
| MQSTIRE [MQ7] | 230 nM | 107 ± 2% | – |
| CC[C@H](C)[C@H](NC(=O)[C@H](CS)NC(=O)[C@H](CCC(=O)O)NC(=O)CNC(=O)[C@H](CS)NC(=O)[C@H](CO)NC(=O)[C@H](CCCCN)NC(=O)[C@H](C)NC(=O)[C@H](CC(N)=O)NC(=O)[C@H](C)NC(=O)[C@@H](N)CCCCN)C(=O)O [KA11] (H-KANAKSCGECI-OH) | 270 nM | 43.7 ± 12.8% | Toxicity to UMR106 cells (UMR106 cells; [4]): no toxicity was observed |
| KQNQVKFGS [KQ9] | 200 nM | 107 ± 15% | – |
| PAKLRNPCT [PA9] | 450 nM | 69.4 ± 46.1% | – |
| TFSQRIEG [TF8] | 140 nM | 105 ± 24% | – |
| GTGTKVRQGTL [GT11, midkine-derived peptide … from β-sheet of C-terminal half] | – | 156 ± 6% | – |
| YKFENWGACDGG [YK12] | – | 44.0 ± 10.5% | Inhibition of cell-substratum adhesion of UMR106 cells (UMR106 cells; [4]): inhibition of cell-substratum adhesion was observed in a certain occasion; Toxicity to UMR106 cells (UMR106 cells; [4]): no toxicity was observed |
